Test results as given in patent publication US8735406B2, “8-oxodihydropurine derivative” (Dainippon Sumitomo Pharma Co., Ltd., priority 2009, dated 2014).

Biological target: T1, FAAH (Rattus norvegicus, UniProt P97612)
T1 construct: Preparation of Rat Brain Membranes Preparations (FAAH Enzyme Solution); from tissue; host or cells: rat cerebrum (brain membrane preparation)
T1 sequence (P97612 1-579): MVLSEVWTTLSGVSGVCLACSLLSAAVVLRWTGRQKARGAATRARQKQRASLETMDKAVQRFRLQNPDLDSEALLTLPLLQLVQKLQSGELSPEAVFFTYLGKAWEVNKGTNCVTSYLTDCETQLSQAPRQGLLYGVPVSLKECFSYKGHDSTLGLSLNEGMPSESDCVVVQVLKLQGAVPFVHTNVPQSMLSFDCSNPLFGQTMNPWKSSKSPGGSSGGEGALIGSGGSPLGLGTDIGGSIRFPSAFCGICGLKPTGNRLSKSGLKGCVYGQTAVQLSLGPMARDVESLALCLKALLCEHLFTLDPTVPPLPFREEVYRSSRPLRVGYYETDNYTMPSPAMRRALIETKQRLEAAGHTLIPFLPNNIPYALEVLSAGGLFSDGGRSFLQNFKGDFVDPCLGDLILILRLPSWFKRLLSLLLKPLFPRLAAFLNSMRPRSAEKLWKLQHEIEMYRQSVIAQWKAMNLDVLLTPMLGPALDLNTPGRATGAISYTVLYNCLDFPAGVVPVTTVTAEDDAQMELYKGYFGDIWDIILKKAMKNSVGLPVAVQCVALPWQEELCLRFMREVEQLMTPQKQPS
Assay: Determination of FAAH inhibitory activity in rat (rat brain membrane preparations, [3H]-anandamide hydrolysis)
Format: biochemical
Conditions: rat brain membrane preparations; for inhibition at 0.1 µM: 100 nM test substance, read-out: FAAH Inhibition, Inhibition Rate at 100 nM; for IC50: test substance 0.1 nM to 1 μM, read-out: FAAH Inhibition IC50
Summary of the method: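 Compounds tested from 0.1 nM to 1 μM to derive IC50 against FAAH hydrolysis in rat brain membrane preparations (100 μg/mL). A 10-min 37 °C preincubation was followed by 10 min with [3H]-anandamide (2 nM) mixed with 2 μM unlabelled anandamide. Radioactive ethanolamine was extracted into the water/methanol layer and counted.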

inhibition at 0.1 µM	IC50	Structure (SMILES)
102%	0.6 nM	Cn1c(=O)n(C(=O)N2CCC(CCc3ccc(Cl)cc3)CC2)c2cnc(-c3ccncc3)nc21 [Example 152, 7-({4-[2-(4-Chlorophenyl)ethyl]piperidin-1-yl}carbonyl)-9-methyl-2-(pyridin-4-yl)-7,9-dihydro-8H-purine-8-one]
99%	27 nM	CN(CCc1ccc(Cl)cc1)C(=O)n1c(=O)n(C)c2nc(C3CC3)ncc21 [Example 153, N-[2-(4-Chlorophenyl)ethyl]-2-cyclopropyl-N,9-dimethyl-8-oxo-8,9-dihydro-7H-purine-7-carboxamide]
101%	2 nM	CCCc1ncc2c(n1)n(C)c(=O)n2C(=O)N(C)CCc1ccc(Cl)cc1 [Example 154, N-[2-(4-Chlorophenyl)ethyl]-N,9-dimethyl-8-oxo-2-propyl-8,9-dihydro-7H-purine-7-carboxamide]
102%	4 nM	CCCCc1ncc2c(n1)n(C)c(=O)n2C(=O)N(C)CCc1ccc(Cl)cc1 [Example 155, 2-Butyl-N-[2-(4-chlorophenyl)ethyl]-N,9-dimethyl-8-oxo-8,9-dihydro-7H-purine-7-carboxamide]
96%	10 nM	CN(CCc1ccc(Cl)cc1)C(=O)n1c(=O)n(C)c2nc(C3CCCCC3)ncc21 [Example 156, N-[2-(4-Chlorophenyl)ethyl]-2-cyclohexyl-N,9-dimethyl-8-oxo-8,9-dihydro-7H-purine-7-carboxamide]
103%	< 10 nM	Cc1ncc2c(n1)n(C)c(=O)n2C(=O)N(C)CCc1ccc(Cl)cc1 [Example 157, N-[2-(4-Chlorophenyl)ethyl]-N,2,9-trimethyl-8-oxo-8,9-dihydro-7H-purine-7-carboxamide]
102%	< 1 nM	CN(CCc1ccc(Cl)cc1)C(=O)n1c(=O)n(C)c2nc(Cc3ccccc3)ncc21 [Example 158, 2-Benzyl-N-[2-(4-chlorophenyl)ethyl]-N,9-dimethyl-8-oxo-8,9-dihydro-7H-purine-7-carboxamide]
61%	81 nM	CCN(C)C(=O)n1c(=O)n(C)c2nc(C3CC3)ncc21 [Example 159]
98%	14 nM	CCN(C)C(=O)n1c(=O)n(C)c2nc(CC(C)(C)C)ncc21 [Example 160, 2-(2,2-Dimethylpropyl)-N-ethyl-N,9-dimethyl-8-oxo-8,9-dihydro-7H-purine-7-carboxamide]
93%	19 nM	CCCCc1ncc2c(n1)n(C)c(=O)n2C(=O)N(C)CC [Example 161, 2-Butyl-N-ethyl-N,9-dimethyl-8-oxo-8,9-dihydro-7H-purine-7-carboxamide]
72%	38 nM	CCN(C)C(=O)n1c(=O)n(C)c2nc(C3CCCCC3)ncc21 [Example 162, 2-Cyclohexyl-N-ethyl-N,9-dimethyl-8-oxo-8,9-dihydro-7H-purine-7-carboxamide]
27%	> 100 nM	CCN(C)C(=O)n1c(=O)n(C)c2nc(C)ncc21 [Example 163]
98%	5 nM	Cn1c(=O)n(C(=O)N2CCC2)c2nc(CCc3cccc(F)c3)ncc21 [Example 164, 9-(Azetidin-1-ylcarbonyl)-2-[2-(3-fluorophenyl)ethyl]-7-methyl-7,9-dihydro-8H-purine-8-one]
103%	4 nM	CN(C)C(=O)n1c(=O)n(C)c2cnc(CCc3cccc(F)c3)nc21 [Example 165, 2-[2-(3-Fluorophenyl)ethyl]-N,N,7-trimethyl-8-oxo-7,8-dihydro-9H-purine-9-carboxamide]
99%	24 nM	Cn1c(=O)n(C(=O)N2CCCC2)c2cnc(-c3ccccc3F)nc21 [Example 166, 2-(2-fluorophenyl)-9-methyl-7-(pyrrolidin-1-ylcarbonyl)-7,9-dihydro-8H-purine-8-one]
101%	6 nM	Cn1c(=O)n(C(=O)N2CCCC2)c2cnc(-c3cccc(F)c3)nc21 [Example 167, 2-(3-Fluorophenyl)-9-methyl-7-(pyrrolidin-1-ylcarbonyl)-7,9-dihydro-8H-purine-8-one]

inhibition at 0.1 µM	IC50	Structure (SMILES)
100%	6 nM	Cn1c(=O)n(C(=O)N2CCCC2)c2cnc(-c3ccc(F)cc3)nc21 [Example 168, 2-(4-Fluorophenyl)-9-methyl-7-(pyrrolidin-1-ylcarbonyl)-7,9-dihydro-8H-purine-8-one]
98%	7 nM	Cc1cccc(-c2ncc3c(n2)n(C)c(=O)n3C(=O)N2CCCC2)c1 [Example 170, 9-Methyl-2-(3-methylphenyl)-7-(pyrrolidin-1-ylcarbonyl)-7,9-dihydro-8H-purine-8-one]
102%	19 nM	Cc1ccc(-c2ncc3c(n2)n(C)c(=O)n3C(=O)N2CCCC2)cc1 [Example 171, 9-Methyl-2-(4-methylphenyl)-7-(pyrrolidin-1-ylcarbonyl)-7,9-dihydro-8H-purine-8-one]
101%	7 nM	COc1cccc(-c2ncc3c(n2)n(C)c(=O)n3C(=O)N2CCCC2)c1 [Example 173, 2-(3-Methoxyphenyl)-9-methyl-7-(pyrrolidin-1-ylcarbonyl)-7,9-dihydro-8H-purine-8-one]
100%	28 nM	CN(C)c1ccc(-c2ncc3c(n2)n(C)c(=O)n3C(=O)N2CCCC2)cc1 [Example 182, 2-[4-(Dimethylamino)phenyl]-9-methyl-7-(pyrrolidin-1-ylcarbonyl)-7,9-dihydro-8H-purine-8-one]
101%	3 nM	CSc1ccc(-c2ncc3c(n2)n(C)c(=O)n3C(=O)N2CCCC2)cc1 [Example 183, 9-Methyl-2-[4-(methylsulfanyl)phenyl]-7-(pyrrolidin-1-ylcarbonyl)-7,9-dihydro-8H-purine-8-one]
100%	7 nM	Cn1c(=O)n(C(=O)N2CCCC2)c2cnc(-c3cccc(F)c3F)nc21 [Example 187, 2-(2,3-Difluorophenyl)-9-methyl-7-(pyrrolidin-1-ylcarbonyl)-7,9-dihydro-8H-purine-8-one]
100%	7 nM	Cn1c(=O)n(C(=O)N2CCCC2)c2cnc(-c3cc(F)ccc3F)nc21 [Example 189, 2-(2,5-Difluorophenyl)-9-methyl-7-(pyrrolidin-1-ylcarbonyl)-7,9-dihydro-8H-purine-8-one]
101%	23 nM	COc1cccc(-c2ncc3c(n2)n(C)c(=O)n3C(=O)N2CCCC2)c1F [Example 196, 2-(2-Fluoro-3-methoxyphenyl)-9-methyl-7-(pyrrolidin-1-ylcarbonyl)-7,9-dihydro-8H-purine-8-one]
97%	30 nM	COc1ccc(F)c(-c2ncc3c(n2)n(C)c(=O)n3C(=O)N2CCCC2)c1 [Example 200, 2-(2-Fluoro-5-methoxyphenyl)-9-methyl-7-(pyrrolidin-1-ylcarbonyl)-7,9-dihydro-8H-purine-8-one]
99%	26 nM	Cc1cc(F)cc(-c2ncc3c(n2)n(C)c(=O)n3C(=O)N2CCCC2)c1 [Example 201, 2-(3-Fluoro-5-methylphenyl)-9-methyl-7-(pyrrolidin-1-ylcarbonyl)-7,9-dihydro-8H-purine-8-one]
53%	95 nM	Cn1c(=O)n(C(=O)N2CCCC2)c2cnc(-c3cccc(OCc4ccccc4)c3)nc21 [Example 202, 2-(3-benzyloxyphenyl)-9-methyl-7-(pyrrolidin-1-ylcarbonyl)-7,9-dihydro-8H-purine-8-one]
98%	24 nM	Cn1c(=O)n(C(=O)N2CCCC2)c2cnc(-c3cccc([N+](=O)[O-])c3)nc21 [Example 203, 2-(3-nitrophenyl)-9-methyl-7-(pyrrolidin-1-ylcarbonyl)-7,9-dihydro-8H-purine-8-one]
98%	5 nM	Cn1c(=O)n(C(=O)N2CCCC2)c2cnc(-c3cccnc3)nc21 [Example 205, 9-Methyl-2-(pyridin-3-yl)-7-(pyrrolidin-1-ylcarbonyl)-7,9-dihydro-8H-purine-8-one]
98%	4 nM	COc1ccc(-c2ncc3c(n2)n(C)c(=O)n3C(=O)N2CCCC2)cn1 [Example 206, 2-(6-Methoxypyridin-3-yl)-9-methyl-7-(pyrrolidin-1-ylcarbonyl)-7,9-dihydro-8H-purine-8-one]
99%	6 nM	Cn1c(=O)n(C(=O)N2CCCC2)c2cnc(-c3ccc(F)nc3)nc21 [Example 207, 2-(6-Fluoropyridine-3-yl)-9-methyl-7-(pyrrolidin-1-ylcarbonyl)-7,9-dihydro-8H-purine-8-one]
